Experimental data reported in patent US11566007B2, “Ras inhibitors” (Revolution Medicines, Inc., priority 2019, dated 2023).
pEC50, pIC50: −log10 of the molar value. Several values for one entry are separate records, joined by “and”; a condition that tells them apart may be missing. Equal entries are not always repeated. Where two headings read alike, the source gives them in different places.

How the values were obtained:
KRAS G13D = KRAS G13D (Homo sapiens (Human), UniProt P01116+P62937, G13D); assay: Ras-Raf (BRAF RBD) disruption / FRET / MOA assay, KRAS G13D; type: biochemical; conditions: read-out: IC50* KRAS G13D FRET data
Chain of KRAS G13D (P01116-2 other isoform, or with tags, fused parts or gaps G13D): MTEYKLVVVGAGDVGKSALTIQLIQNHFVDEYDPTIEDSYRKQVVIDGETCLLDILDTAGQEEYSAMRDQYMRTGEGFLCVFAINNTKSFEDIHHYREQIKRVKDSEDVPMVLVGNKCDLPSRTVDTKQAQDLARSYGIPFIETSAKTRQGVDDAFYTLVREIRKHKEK
Chain of KRAS G13D (P62937 whole entry): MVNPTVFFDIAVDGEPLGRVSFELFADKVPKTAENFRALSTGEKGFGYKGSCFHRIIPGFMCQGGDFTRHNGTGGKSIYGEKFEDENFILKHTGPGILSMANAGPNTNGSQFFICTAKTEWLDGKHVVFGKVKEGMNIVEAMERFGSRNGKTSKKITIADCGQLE
Outline: (§1)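 Ternary complex formation (Ras–compound–cyclophilin A) displacing BRAF RBD, monitored by TR-FRET. Three hours at 25° C with compound (top 30 μM final), then 1.5 h with the labelled antibodies. Lower ratio than DMSO indicates disruption; IC50 reported.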

KRAS G12V = KRAS G12V (Homo sapiens (Human), UniProt P01116+P62937, G12V); assay: Ras-Raf (BRAF RBD) disruption / FRET / MOA assay, KRAS G12V; type: biochemical; conditions: read-out: IC50* KRAS G12V FRET data
Chain of KRAS G12V (P01116-2 other isoform, or with tags, fused parts or gaps G12V): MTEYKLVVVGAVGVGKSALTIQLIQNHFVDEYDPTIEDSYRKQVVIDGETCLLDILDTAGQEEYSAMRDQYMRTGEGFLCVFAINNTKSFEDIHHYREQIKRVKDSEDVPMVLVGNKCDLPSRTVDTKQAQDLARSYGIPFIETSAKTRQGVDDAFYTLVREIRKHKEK
Chain of KRAS G12V (P62937 whole entry): as the sequence (P62937 whole entry) above
Outline: as §1

[1] = system: NCI-H358 cells (K-Ras G12C); assay: Potency assay: pERK in NCI-H358 cells; type: cell-based, human; conditions: Homo sapiens
Outline: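 Compounds are dosed as ten 3-fold dilutions from a 10 mM DMSO stock, in duplicate, and left on cells for 4 h at 37 °C, 5% CO2. Phospho-ERK1/2 is then quantified by AlphaLISA SureFire Ultra or In-Cell Western, and IC50 is derived from a 4-parameter sigmoid against log concentration.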

KRAS G12D = KRAS G12D (Homo sapiens (Human), UniProt P01116+P62937, G12D); assay: Ras-Raf (BRAF RBD) disruption / FRET / MOA assay, KRAS G12D; type: biochemical; conditions: Ras-Raf disruption/FRET/MOA assay; class symbols; read-out: KRAS G12D FRET data IC50
Chain of KRAS G12D (P01116-2 other isoform, or with tags, fused parts or gaps G12D): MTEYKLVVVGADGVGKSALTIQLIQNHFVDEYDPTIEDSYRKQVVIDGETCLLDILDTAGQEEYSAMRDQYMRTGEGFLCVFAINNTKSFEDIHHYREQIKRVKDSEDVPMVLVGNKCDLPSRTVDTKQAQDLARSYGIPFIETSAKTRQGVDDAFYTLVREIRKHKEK
Chain of KRAS G12D (P62937 whole entry): as the sequence (P62937 whole entry) above
Outline: as §1

KRAS WT = KRAS WT (Homo sapiens (Human), UniProt P01116+P62937); assay: Ras-Raf (BRAF RBD) disruption / FRET / MOA assay, KRAS WT; type: biochemical; conditions: read-out: IC50* KRAS WT FRET data
Chain of KRAS WT (P01116-2 other isoform, or with tags, fused parts or gaps): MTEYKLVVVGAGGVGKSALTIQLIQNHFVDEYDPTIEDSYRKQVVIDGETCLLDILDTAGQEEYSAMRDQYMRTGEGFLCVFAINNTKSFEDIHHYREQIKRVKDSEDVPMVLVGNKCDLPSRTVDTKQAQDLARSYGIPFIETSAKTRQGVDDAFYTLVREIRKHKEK
Chain of KRAS WT (P62937 whole entry): as the sequence (P62937 whole entry) above
Outline: as §1

NRAS G12C = NRAS G12C (Homo sapiens (Human), UniProt P01111+P62937, G12C); assay: Ras-Raf (BRAF RBD) disruption / FRET / MOA assay, NRAS G12C; type: biochemical; conditions: read-out: IC50* NRAS G12C FRET data
Chain of NRAS G12C (P01111 whole entry G12C): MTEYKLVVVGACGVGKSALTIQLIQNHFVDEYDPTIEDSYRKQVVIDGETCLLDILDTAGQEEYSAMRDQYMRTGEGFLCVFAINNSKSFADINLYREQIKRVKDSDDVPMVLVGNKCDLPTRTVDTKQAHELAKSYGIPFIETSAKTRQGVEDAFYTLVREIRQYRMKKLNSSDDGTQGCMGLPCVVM
Chain of NRAS G12C (P62937 whole entry): as the sequence (P62937 whole entry) above
Outline: as §1

K-Ras G12C = K-Ras G12C (Homo sapiens (Human), UniProt P01116+P62937, G12C); assay: Ras-Raf (BRAF RBD) disruption / FRET / MOA assay, KRAS G12C; type: biochemical
Chain of K-Ras G12C (P01116-2 other isoform, or with tags, fused parts or gaps G12C): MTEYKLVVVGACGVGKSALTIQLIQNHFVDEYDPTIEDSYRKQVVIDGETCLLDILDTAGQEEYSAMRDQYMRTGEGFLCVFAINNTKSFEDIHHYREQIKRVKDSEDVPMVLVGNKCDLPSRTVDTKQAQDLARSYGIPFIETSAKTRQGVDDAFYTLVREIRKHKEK
Chain of K-Ras G12C (P62937 whole entry): as the sequence (P62937 whole entry) above
Outline: as §1

K-Ras G13C = K-Ras G13C (Homo sapiens (Human), UniProt P01116+P62937, G13C); assay: Ras-Raf (BRAF RBD) disruption / FRET / MOA assay, KRAS G13C; type: biochemical
Chain of K-Ras G13C (P01116-2 other isoform, or with tags, fused parts or gaps G13C): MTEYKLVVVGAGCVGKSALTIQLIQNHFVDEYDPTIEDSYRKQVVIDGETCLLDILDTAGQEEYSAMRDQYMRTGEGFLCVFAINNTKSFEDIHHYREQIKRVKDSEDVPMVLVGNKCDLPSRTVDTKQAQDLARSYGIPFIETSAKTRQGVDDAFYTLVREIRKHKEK
Chain of K-Ras G13C (P62937 whole entry): as the sequence (P62937 whole entry) above
Outline: as §1

NCI-H358 (K-Ras G12C) = assay: CellTiter-Glo cell viability assay, NCI-H358; type: cell-based, human; conditions: Homo sapiens, NCI-H358, 120 h, NCI-H358, 5-day treatment
Outline: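 Luminescent viability readout on day 5 after direct compound addition to plated cells; plates sat ~30 min at room temperature before reading. Values expressed as percent of mean DMSO signal, curves fit with a four-parameter logistic model.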

KRAS G12S = KRAS G12S (Homo sapiens (Human), UniProt P01116+P62937, G12S); assay: Ras-Raf (BRAF RBD) disruption / FRET / MOA assay, KRAS G12S; type: biochemical; conditions: Ras-Raf disruption/FRET/MOA assay; class symbols; read-out: KRAS G12S FRET data IC50
Chain of KRAS G12S (P01116-2 other isoform, or with tags, fused parts or gaps G12S): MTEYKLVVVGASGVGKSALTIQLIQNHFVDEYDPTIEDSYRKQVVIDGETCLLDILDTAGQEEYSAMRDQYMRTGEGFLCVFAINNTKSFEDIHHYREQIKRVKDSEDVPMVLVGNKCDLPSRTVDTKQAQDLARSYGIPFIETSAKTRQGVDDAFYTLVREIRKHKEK
Chain of KRAS G12S (P62937 whole entry): as the sequence (P62937 whole entry) above
Outline: as §1

[2] = NCI-H358, H358 KRAS G12C, read-out: pERK EC50
[3] = KRAS G12C, Ras-Raf disruption/FRET/MOA assay, read-out: IC50* KRAS G12C FRET data
[4] = KRAS G13C, Ras-Raf disruption/FRET/MOA assay, read-out: IC50* KRAS G13C FRET data
[5] = class symbols, read-out: Additional H358 Cell Viability assay data (K-Ras G12C, IC50)

Structure (SMILES)	pIC50 (KRAS G13D)	pIC50 (KRAS G12V)	pEC50 [1, 2]	pIC50 (KRAS G12D)	pIC50 (KRAS WT)	pIC50 (NRAS G12C)	pIC50 (K-Ras G12C; [3])	pIC50 (K-Ras G13C; [4])	pIC50 (NCI-H358 (K-Ras G12C); [5])	pIC50 (KRAS G12S)	pEC50 ([1]; NCI-H358 cells, 4 hours, read-out: H358 pERK (K-Ras G12C) EC50)	pIC50 (K-Ras G12C; with Cyclophilin A, BRAF RBD, read-out: FRET (K-Ras G12C) IC50)	pIC50 (K-Ras G13C; with Cyclophilin A, BRAF RBD, read-out: FRET (K-Ras G13C) IC50)	pIC50 (NCI-H358 (K-Ras G12C); read-out: H358 Cell Viability (K-Ras G12C) IC50)
CCn1c(-c2cccnc2)c2c3cc(ccc31)-c1cccc(c1)C[C@H](NC(=O)[C@H](C(C)C)N(C)C(=O)[C@H]1CCN(C(=O)C#CCN3CCOCC3)C1)C(=O)N1CCC[C@H](N1)C(=O)OCC(C)(C)C2 [Example A195]	< 5.00	< 5.00	> 5.30	< 5.00	< 5.00	6.00 to 7.00	6.00 to 7.00	< 5.00	6.00 to 7.00	< 5.00				
CCn1c(-c2cccnc2COC)c2c3cc(ccc31)-c1cc(O)cc(c1)C[C@H](NC(=O)[C@@H](C(C)C)N(C)C(=O)[C@H]1CCN(C(=O)C#CCN3CCOCC3)C1)C(=O)N1CCC[C@H](N1)C(=O)OCC(C)(C)C2 [Example A200]	< 5.00	< 5.00	> 5.30	< 5.00	< 5.00	7.00 to 8.00	7.00 to 8.00	5.00 to 6.00	6.00 to 7.00	< 5.00				
CCn1c(-c2cncnc2)c2c3cc(ccc31)-c1cccc(c1)[C@@H](OC)[C@H](NC(=O)[C@H](C(C)C)N(C)C(=O)[C@H]1CCN(C(=O)C#CCN3CCOCC3)C1)C(=O)N1CCC[C@H](N1)C(=O)OCC(C)(C)C2 [Example A208]	< 5.00	< 5.00	> 5.30	< 5.00	< 5.00	5.00 to 6.00	6.00 to 7.00	< 5.00	< 6.00	< 5.00	7.89	7.64	5.13	8.40
CCn1c(-c2ccccc2CN(C)C)c2c3cc(ccc31)-c1cc(O)cc(c1)C[C@H](NC(=O)[C@H](C(C)C)N(C)Cc1ccc(NC(=O)/C=C/CN(C)C)cn1)C(=O)N1CCC[C@H](N1)C(=O)OCC(C)(C)C2 [Example A213]	5.00 to 6.00 and < 5.00	5.00 to 6.00 and < 5.00	> 5.30	5.00 to 6.00 and < 5.00	5.00 to 6.00 and < 5.00	5.00 to 6.00 and < 5.00	6.00 to 7.00 and < 5.00	6.00 to 7.00 and 5.00 to 6.00	< 6.00	5.00 to 6.00 and < 5.00				
C=CC(=O)N1CC[C@H](C(=O)N(C)c2ccccc2C(=O)N[C@H]2Cc3cc(O)cc(c3)-c3ccc4c(c3)c(c(-c3cnccc3COC)n4CC)CC(C)(C)COC(=O)[C@@H]3CCCN(N3)C2=O)C1 [Example A228]	< 5.00	< 5.00	> 5.30	< 5.00	< 5.00	5.00 to 6.00	5.00 to 6.00	< 5.00	< 6.00	< 5.00				
C=CC(=O)N1CC(OC[C@H](C(=O)N[C@H]2Cc3cc(O)cc(c3)-c3ccc4c(c3)c(c(-c3cccnc3COC)n4CC)CC(C)(C)COC(=O)[C@@H]3CCCN(N3)C2=O)C(C)C)C1 [Example A232]	5.00 to 6.00	5.00 to 6.00	> 5.30	< 5.00	5.00 to 6.00	6.00 to 7.00	6.00 to 7.00	6.00 to 7.00	7.00 to 8.00	< 5.00				
CCn1c(-c2cccnc2COC)c2c3cc(ccc31)-c1cc(O)cc(c1)C[C@H](NC(=O)[C@H](C(C)C)N(C)C(=O)[C@H]1CCN(C(=O)C#CCN3[C@H](C)COC[C@@H]3C)C1)C(=O)N1CCC[C@H](N1)C(=O)OCC(C)(C)C2 [Example A237]	5.00 to 6.00	6.00 to 7.00	> 5.30	5.00 to 6.00	5.00 to 6.00	7.00 to 8.00	7.00 to 8.00	6.00 to 7.00	> 8.00	6.00 to 7.00				
CCn1c(-c2cccnc2COC)c2c3cc(ccc31)-c1cc(O)cc(c1)C[C@H](NC(=O)[C@H](C(C)C)N(C)C(=O)[C@H]1CCN(C(=O)C#CC3(N(C)C)CC3)C1)C(=O)N1CCC[C@H](N1)C(=O)OCC(C)(C)C2 [Example A238]	5.00 to 6.00	6.00 to 7.00	> 5.30	< 5.00	5.00 to 6.00	6.00 to 7.00	7.00 to 8.00	6.00 to 7.00	7.00 to 8.00	5.00 to 6.00				
